Measured values from paper PMC2263054, “Functional evolution of the vitamin D and pregnane X receptors” (BMC Evolutionary Biology, 2007).

Tests used:
Zebrafish VDR = molecular target: T1, Zebrafish VDR (Danio rerio, UniProt Q9PTN2); assay: luciferase reporter transactivation assay in HepG2-NTCP cells, GAL4/zfVDR LBD chimera with tk-UAS-Luc; assay type: cell-based; conditions: HepG2-NTCP cells, luciferase reporter; unit not given; also cells saying No effect
T1 sequence (Q9PTN2 121-453): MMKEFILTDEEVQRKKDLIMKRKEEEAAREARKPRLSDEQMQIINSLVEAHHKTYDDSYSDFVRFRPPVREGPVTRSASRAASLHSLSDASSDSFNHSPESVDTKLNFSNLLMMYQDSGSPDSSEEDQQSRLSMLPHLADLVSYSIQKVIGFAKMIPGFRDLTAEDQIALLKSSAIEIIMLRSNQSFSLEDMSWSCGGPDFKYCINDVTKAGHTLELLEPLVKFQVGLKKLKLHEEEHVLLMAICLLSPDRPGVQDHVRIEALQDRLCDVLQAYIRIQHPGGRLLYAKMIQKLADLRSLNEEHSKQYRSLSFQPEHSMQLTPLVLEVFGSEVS

Xenopus laevis VDR = molecular target: T2, Xenopus laevis VDR (Xenopus laevis, UniProt O13124); assay: luciferase reporter transactivation assay in HepG2-NTCP cells, GAL4/xlVDR LBD chimera with tk-UAS-Luc; assay type: cell-based; conditions: HepG2-NTCP cells, luciferase reporter; unit not given; also cells saying No effect
T2 sequence (O13124 90-422): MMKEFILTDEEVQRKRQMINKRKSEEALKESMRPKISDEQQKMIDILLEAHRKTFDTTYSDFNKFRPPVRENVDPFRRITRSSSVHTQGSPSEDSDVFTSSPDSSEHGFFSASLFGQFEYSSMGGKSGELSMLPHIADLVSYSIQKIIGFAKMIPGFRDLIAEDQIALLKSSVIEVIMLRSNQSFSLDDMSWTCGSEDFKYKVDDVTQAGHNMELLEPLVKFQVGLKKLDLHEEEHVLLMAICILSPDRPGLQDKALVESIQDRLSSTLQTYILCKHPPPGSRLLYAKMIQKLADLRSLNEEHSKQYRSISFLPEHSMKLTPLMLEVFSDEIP

[1] = test system: 6β- and 12α-hydroxylation of testosterone; assay: testosterone hydroxylation (HPLC) in African clawed frog primary hepatocytes; assay type: cell-based, Xenopus laevis; conditions: relative to vehicle control
Protocol: Xenopus laevis primary hepatocytes were cultured by a protocol adapted from a published report. Frogs are sacrificed with MS-222, rinsed with 70% ethanol, and the liver lobes perfused via the heart, initially with 375 mL Barth (88 mM NaCl, 1 mM K2SO4, and 10 mM HEPES-NaOH, pH 7.4) containing 0.82 mM MgCl2 and 0.1 mg/mL heparin, and then with 25 mL Barth containing 2.22 mM Ca(NO3)2, 2.74 mM CaCl2, and 200 U/mL type I collagenase (Worthington Chemicals, Lakewood, NJ). Livers are minced to fine pieces in 12.5 mL Barth-collagenase solution and then incubated for 10 min at room temperature, periodically disaggregating the liver pieces with a Pasteur pipette. The liver cells are then placed on a shaking incubator for 5 min at room temperature, followed by another 10 min of periodic pipetting to complete disaggregation. Cells are then filtered through a 130 μm Nitex nylon mesh (Fisher Scientific), following by spinning at 500 g for 5 min at 4°C. The supernatant is then aspirated and diluted to 50 mL with Barth plus MgCl2 and then allowed to settle while cooled in ice for 30 min. The supernatant is removed, and the cellular pellet is resuspended and subjected to one more round of nylon mesh filtration, dilution in Barth plus MgCl2, and settling while cooled in ice. The supernatant is removed and the remaining cells are washed once with Barth plus MgCl2 and then centrifuged at 500 g for 5 min at 4°C. The cells are then resuspended in 0.6 × Coon's Modified Ham's F-12 medium (Invitrogen) supplemented with 0.1 × Barth (88 mM NaCl, 1 mM K2SO4, 10 mM HEPES), 200 U/mL penicillin G, 100 μg/mL streptomycin sulfate, 2 mM glutamine, 0.2% glucose, and 10 μg/mL bovine insulin (Calbiochem), with the final pH adjusted to 7.5. […] Cells are cultured at 20°C in ambient atmosphere.
Testosterone metabolites were identified and quantitated by HPLC. […] The supernatant was then injected into the HPLC.

Ciona VDR/PXR = conditions: HepG2-NTCP cells, luciferase reporter; unit not given; also cells saying No effect
PXR = assay: zebrafish in vivo liver transcription, semi-quantitative RT-PCR: PXR
Protocol: Adult zebrafish were purchased from a commercial fish supplier and acclimatized for at least two-weeks in 20 L tanks with flow-through freshwater at 22°C. A single dose of 15 mg/kg of 5α-cyprinol, 5β-cyprinol 27-sulfate, 5α-scymnol or 5β-scymnol-27 sulfate, dissolved in saline, was injected intraperitoneally. A control group was injected with saline. After 48 hr, the animals were decapitated and livers of three fish (n = 5 each group) were removed, pooled and weighed, totalizing 15 fish per group. Fish were not fed throughout the experimental period. […].
To study the transcription of CYP3C1, ABCB5, PXR, GAPDH and β-actin genes in zebrafish, initial fragments of these genes were identified (Genbank: AW202769, Genbank: BQ284593, Genbank: AAM22215, Genbank: BC083506, Genbank: AF057040, respectively). The PCR primers for CYP3C1 were designed using MacVector Software and primers for MDR1 were designed using Primer 3 Software (Whitehead Institute for Biomedical Research; [75]). Primer pairs for amplifying CYP3C1 fragment were 5'-[…]-3' (sense) and 5'-[…]-3' (antisense) and for amplifying ABCB5 were 5'-[…]-3' (sense) and 5'-[…]-3' (antisense). The PCR primers for PXR were 5'-[…]-3' (sense) and 5'-[…]-3' (antisense), for amplifying GAPDH were 5'-[…]-3' (sense) and 5' […] 3' (antisense) and for β-actin were 5'-[…]-3' (sense) and 5'-[…]-3' (antisense). RNA was isolated using Trizol (Invitrogen) according to manufacturer's instructions. Purity and concentration of RNA of each sample were verified at 260 nm. The RNA integrity was checked by non-denaturing gel electrophoresis using 1 μg of total RNA in each sample.
Two micrograms of total RNA were reversed transcribed using Ominiscript RT Kit (Qiagen, Valencia, CA, USA). cDNA concentration was checked at 260 nm, and the amount adjusted to 1 μg to perform semi-quantitative RT-PCR. The expected size of the PXR, Cyp3C1, abcb5, GAPDH and β-actin fragments were 577, 477, 218, 234 and 550 bp, respectively. Biotools DNA polymerase (Biotools B&M Labs, S.A., Madrid, Spain) kit was used for the PCR reaction using a thermocycler Personal Mastercycler (Eppendörf) with the following PCR program: 5 cycles of 94°C for 5 s, 72°C for 35 s; 5 cycles of 94°C for 5 s, 70°C for 10 s, 72°C for 35 s; and 23, 24, 35, 15 and 24 cycles (PXR, Cyp3C1, abcb5, GAPDH and β-actin, respectively) of 94°C for 5 s, 61, 54, 48, 49 and 61°C for 10 s (PXR, Cyp3C1, abcb5, GAPDH and β-actin, respectively), and 72°C for 35 s. The PXR, CYP3C1, ABCB5 and GAPDH transcript levels were quantified using Gel-Quant™ (Multiplexed Biotechologies) and β-actin was used to normalize the data. The Shapiro-Wilk W test was used to evaluate normality. When data were parametric the analysis was performed using Student t test; otherwise Mann Whitney U test was applied. […]

| SMILES | Zebrafish VDR EC50 ± SD (Zebrafish VDR) | Xenopus VDR EC50 ± SD (Xenopus laevis VDR) | effect on 6β- and 12α-hydroxylation of testosterone [1] | Ciona VDR/PXR EC50 ± SD (Ciona VDR/PXR) | liver transcription of PXR (PXR; zebrafish, 15 mg/kg intraperitoneally, single dose, 48 hr) | liver transcription of PXR (PXR; ip, 15 mg/kg, 48 h) |
| --- | --- | --- | --- | --- | --- | --- |
| C[C@H](CCCC(CO)COS(=O)(=O)O)[C@H]1CC[C@H]2[C@@H]3[C@H](O)C[C@H]4C[C@H](O)CC[C@]4(C)[C@H]3C[C@H](O)[C@]12C (stereo partly drawn) [5α-Cyprinol 27-sulfate] | No effect | No effect | neither activity was substantially increased relative to vehicle control | No effect | 1.50 ± 0.67 arbitrary units normalized to β-actin | – |
| C[C@H](CCCC(CO)CO)[C@H]1CC[C@H]2[C@@H]3[C@H](O)C[C@H]4C[C@H](O)CC[C@]4(C)[C@H]3C[C@H](O)[C@]12C [5α-Cyprinol, 5α-cholestan-3α,7α,12α,26,27-pentol] | No effect | No effect | neither activity was substantially increased relative to vehicle control | No effect | – | 0.58 ± 0.33 arbitrary units normalized to β-actin |
